{"source": "patent US20250136997A1", "about": "“COMPOSITIONS FOR SEQUESTERING ISOAMYL AMINE AND METHODS OF USE THEREFOR” (University of Louisville Research Foundation, Inc., priority 2023, published 2025)", "key": {"[1]": {"assay": "Histological analysis (H&E) of brain", "format": "in vivo, mouse", "conditions": "IAA to young mice, phage to aged mice; especially cerebrum and cerebellum", "method": "Histological analysis. For hematoxylin and eosin (H&E) staining, tissues were fixed with buffered 10% formalin solution (SF93-20; Fisher Scientific, Fair Lawn, NJ) overnight at 4° C. Dehydration was achieved by immersion in a graded ethanol series of 70%, 80%, 95%, and 100% ethanol for 40 minutes each. Tissues were embedded in paraffin and subsequently cut into ultra-thin slices (5 μm) using a microtome. Tissues were deparaffinized by xylene (Fisher) and rehydrated by decreasing concentrations of ethanol and PBS. Tissue sections were stained with H&E and slides were scanned with an Aperio ScanScope. For frozen sections, tissues were fixed with periodate-lysine-paraformaldehyde (PLP) and dehydrated with 30% sucrose in PBS at 4° C. overnight. The sections were incubated overnight at 4° C. with anti-Iba1 (FujiFilm, #019-19741) and anti-CD-11b (Biolegend, #101204) diluted 1:100. The signal was visualized with the secondary antibodies conjugated to Fluors Alex-488 or Alex-594 (Invitrogen) and nuclei were stained with 4′,6-Diamidino-2-phenylindole dihydrochloride (DAPI). The slides were scanned using an Aperio ScanScope or visualized using confocal laser scanning microscopy (Nikon, Melville, NY)."}, "[2]": {"tested_on": "S100A8", "assay": "Western blot of S100A8 in p53 KO microglia after IAA", "format": "cell-based, mouse", "conditions": "p53 KO with CRISPR-Cas9, IAA 12 h", "method": "Western blotting. Cells were treated as indicated in individual Figure legends and whole cell extracts (WCE) were prepared in the radioimmunoprecipitation assay (RIPA) buffer (Sigma) with addition of protease and phosphatase inhibitors (Roche). Proteins were separated by 10% SDS-PAGE and transferred to polyvinylidene difluoride (PVDF) membranes (Bio-Rad Laboratories, Inc., Hercules, CA). Dual color precision protein MW markers (BioRad) were separated in parallel. Antibodies were purchased as follows: cleaved-caspase-3 (ab214430), cleaved PARP (ab203467) and GAPDH (ab9657, Abcam) from Abcam; S100A8 (47310) and S100a9 (72590) from Cell Signaling; and Ltf (GTX81085) from GeneTex. The secondary antibodies conjugated to Fluors Alex-488 (A32723) or Alex-594 (A11012) were purchased from Invitrogen (Eugene, OR). The bands were visualized on the Odyssey Imager (LiCor Inc, Lincoln, NE)."}, "[3]": {"tested_on": "promoter of S100A8", "assay": "SPR of p53 protein and biotinylated oligo with or without IAA", "format": "binding, mouse"}, "[4]": {"tested_on": "promoter of S100A8", "assay": "Chromatin immunoprecipitation assay with biotinylated IAA", "format": "binding, mouse", "conditions": "BV2 genomic DNA", "method": "Chromatin immunoprecipitation assay. To identify the interaction of IAA and promoter of S100A8, 1 mg of IAA was labeled with biotin using the EZ-Link NHS-PEG4 Biotinylation kit (Thermo Fisher Sci., #21455) and excess biotin was removed using a desalting column. Biotinylated IAA was incubated with microglia BV2 cells for 3 h at 37° C. following 37% formaldehyde (final 1%) in 1 ml PBS for one more hour for cross-linking. The cell lysate was collected in 1 ml of RIPA buffer and sonication was used to shear the chromatin into 0.5˜1 kb fragment. Streptavidin Dynabeads ([…]) were added to the DNA samples for 1 h at room temperature. PBS replaced the DNA and was incubated with the beads as the control to exclude non-specific interactions. After washing beads with PBS, biotinylated IAA was eluted from the beads with the biotin (4 mg/ml) in 25mMTris-HCL containing 0.3MNaCl (pH 8.5) as the elution buffer at room temperature for 1 h or 95° C. for 5 min. The supernatant was collected and the DNA was purified with acetic acid (2%, v/v) and dissolved into […] of H2O. Two ml of DNA was used in quantitative PCR reactions using the primers of S100A8-ChIP in Table 3."}, "[5]": {"assay": "T-maze spontaneous alternation (TMSA) test", "format": "in vivo, mouse", "conditions": "IAA to young mice", "method": "T-maze test. To evaluate the cognitive impairment without requirement of full motor function, modified T-Maze test (Deacon and Rawlins, 2006) was carried out. Mice were gently handled, habituated to the T-Maze apparatus, and subjected to food deprivation. On the forced alternation sample trial (T1), the animals were exposed to the T-maze with one of the arms opened and rewarded with pellet at end of the arm. The opposite arm was blocked by a guillotine door. The mouse was allowed to explore the open arm and consume the reward. Ten consecutive trials were performed, then the mouse was removed. After 30 min, retrieval testing (T2) was performed. The blocked arm was opened and the mouse was placed in the same start position. […] If the mouse entered the same arm as in T1, the mouse was confined for 10 seconds and this response was marked as an “Error”. Each mouse was subjected to 10 consecutive runs. Forced Alternation [%] was defined as the percent of mice first entering the novel arm during T2. […] The three- or four-day intersession interval is used to assess recognition memory performances."}, "[6]": {"tested_on": "microglial cells", "assay": "FACS analysis of apoptotic bodies (ABs) in supernatants of cultured microglial cells", "format": "cell-based, mouse", "conditions": "microglial cells isolated from young mice", "method": "Flow cytometry. Isolated cells were incubated with blocking solution (0.5% BSA/PBS) for 15 minutes at 4° C. For surface staining, cells were stained with various antibodies at room temperature for 1 hour and then washed with PBS. Washed cells were stained for 40 minutes at 4° C. with the appropriate fluorochrome-conjugated antibodies in PBS with 2% FBS. Data were acquired using a BD FACSCalibur flow cytometer (BD Biosciences, San Jose, CA) and analyzed using FlowJo software (Tree Star Inc., Ashland, OR). The following antibodies purchased from Biolegend were used for flow cytometry: anti-CD11b (101208), anti-CD45 (103112) and FITC Annexin V (640945). For the ABs analysis, extracellular vesicles were collected. To recognize the ABs, as described previously, size gates set based on forward scatter (FSC) were applied in combination with Annexin V staining. From these vesicles total ABs were detected using Annexin V staining events.\nIsolation of apoptotic bodies. Apoptotic bodies (ABs) were isolated from culture supernatants as previously described. Briefly, cell culture medium was harvested and cells were removed by pelleting at 335×g for 10 minutes. To remove cell-debris, supernatants were centrifuged at 1,000×g for 10 minutes, followed by another centrifugation at 2,000×g for 30 minutes to pellet ABs. Pelleted ABs were resuspended and washed with PBS."}}, "data": [{"compound": "CC(C)CCN", "note": "[IAA, isoamylamine]", "values": [{"measurement": "neuronal loss and dying neurons in the brain (histology)", "setting": "[1]", "result": "significantly promoted"}, {"measurement": "S100A8 induced by IAA (western blot)", "setting": "[2]", "result": "p53 dependent"}, {"measurement": "p53 binding to promoter of S100A8 (SPR)", "setting": "[3]", "result": "p53 binds to promoter of S100A8 in an IAA dependent manner"}, {"measurement": "interaction with promoter of S100A8 genomic DNA (ChIP)", "setting": "[4]", "result": "demonstrated"}, {"measurement": "deficit of spatial learning in the TMSA (percentage of correct choices)", "setting": "[5]; phage to aged mice", "result": "induced the deficit"}, {"measurement": "percentage of alternating choices (exploring new arm), TMSA", "setting": "[5]; phage^TSD-27 to aged mice", "result": "reduced young mice exploring the new path"}, {"measurement": "ABs released into the culture supernatants", "setting": "[6]", "result": "increase"}]}]}
